# Source: patent US20160229835A1, “NOVEL PYRIDYLOXYACETYL TETRAHYDROISOQUINOLINE COMPOUNDS USEFUL AS NAMPT INHIBITORS” (ELI LILLY AND COMPANY, priority 2013, published 2016)
# pIC50: −log10 of the molar value.
# Experiments:
# A2780 cells = assay: A2780 Proliferation Assay ±NAM (Nicotinamide); format: cell-based; settings: Homo sapiens, A2780, 72 h, absence of NAM, read-out: IC50 (proliferation of A2780 cells in the absence of NAM)
# Protocol: The purpose of this assay is to measure the ability of a compound to inhibit proliferation of A2780 cells (the NCI-DCTD Tumor repository) dependent on the NAMPT-mediated NAD^+ formation in the presence or absence of higher concentrations of NAM (10 mM) in vitro. The A2780 cell proliferation assay uses assay-ready frozen cells. To prepare assay-ready frozen A2780 cells, A2780 cells, an ovarian cancer cell line, are cultured in growth media containing RPMI 1640 (Gibco 30-2001) supplemented with 10% FBS, in T-150 flasks for 3-4 days. Cells are then treated with 4 mL of 0.25% (v/v) trypsin for 1 minute (Hyclone SH30042). Trypsin-treated cells are then diluted with 10 mL of growth media, and the cell slurry is gently mixed and then decanted to a centrifuge tube. Cells are counted and then pelleted by centrifugation at 1400 rpm for 5 minutes. After centrifugation the supernatant is removed and the cell pellets are re-suspended in GIBCO® RECOVERY™ Cell Culture Freezing Medium (Invitrogen 12648-010) at 2-5×10^6 cells/mL and then aliquoted at 1 mL volumes into cryovials. Cryovials are stored initially at −80° C. for 16 hours, and then transferred to liquid nitrogen for long term storage.
# One day before the planned initiation of compound treatment portion of the assay, one vial of assay ready frozen cells is thawed, and the cells are washed with 50 mL of growth medium. Cells are counted and then diluted to 2.8×10^4 cells/mL and then plated at a rate of 2500 cells/well (90 μL per well) to BD Poly-D-Lysine, 96 well black plates (BD Biocoat 35-4640). Plates are then covered and incubated overnight under 5% CO2 at 37° C. The next day in a separate plate (V bottom Nunc 249946), a ten-point compound dilution series for each compound is prepared in growth media containing 2% DMSO (v/v, 0.2% final) with or without 100 mM NAM (10 mM final). Then 10 μL of compounds after a ten-point series dilution from either 2 or 0.1 μM (depending potency of each compound) to 50 pM or 5 pM (final) are added to the wells of the cell plates. Cell plates are covered and incubated for 72 hours under 5% CO2 at 37° C.
# On the day of the viability assessment, one vial of GF-AFC substrate (CELL TITER-FLUOR™ Cell Viability Assay Kit, Promega G6081) is vortexed and the substrate is transferred to one vial of thawed CELL TITER-FLUOR™ Assay Buffer. The resulting CELL TITER-FLUOR™ reagent is then vortexed well to thoroughly dissolve the substrate. The CELL TITER-FLUOR™ reagent is then diluted (1:2) in growth medium and 50 μL of diluted CELL TITER-FLUOR™ reagent is added to each well of the cell plate. The cell plate is covered and incubated under 5% CO2 at 37° C. for 1-3 hours. Finally the cell plates are removed from the incubator and the well fluorescence is measured on an Envision® Multilabel Reader (Perkin Elmer, λeX 355/λem 495). Fluorescence from compound treated wells is compared to the no cell and no compound treatment control wells to calculate percent inhibition. The percent inhibition and ten-point compound concentration data is fit to a four-parameter logistic equation using ACTIVITYBASE 4.0 Equation 205. Each compound is tested 2-4 times in this assay.
# [1] = tested on: NAMPT-mediated NAD+/NMN formation in A2780 tumor cells; assay: Assay for NAD+/NMN Levels in A2780 Cells; format: cell-based; settings: Homo sapiens, A2780, 24 h, 24 hours treatment, averaged
# Protocol: A2780 (the NCI-DCTD Tumor repository) tumor cells, an ovarian cancer cell line, are cultured in RPMI 1640 (SH30255.01, Hyclone) supplemented with 10% FBS. […] FK866 (100 nM) is also included as a positive control for maximum inhibition (100%). Each compound is tested 1-4 times in this assay.
# To assess NAD^+/NMN levels in the cell, A2780 cells grown in the above referenced 96-well plates are lysed with RIPA buffer (Pierce) followed by addition of 50 μL of 0.2 N HCl. The resulting cell lysates are incubated at 60° C. for 10 minutes and neutralized with 50 μL of 0.2 N NaOH. After centrifugation at 2000×g for 15 minutes, the supernatants (50 μL) are collected. The NAD^+/NMN assays are described by Putt and Hergenrother (Putt, K. S, and Hergenrother, P. J., An enzymatic assay for poly(ADP-ribose) polymerase-1 (PARP-1) via the chemical quantitation of NAD^+: application to the high-throughput screening of small molecules as potential inhibitors. Analytical Biochemistry, 2004, 326, 78-86) with modifications. The resulting lysates are mixed with 20 μL of 0.2 N KOH and 20 μL of 20% acetophenone, and incubated at 90° C. for 10 minutes followed by addition of 90 μL of formic acid. After incubation at 90° C. for 10 minutes, the resulting preparations are measured for their fluorescence at the excitation and emission wavelength of 360 and 450 nm, respectively as described by Putt and Hergenrother (2004).
SMILES,pIC50 (A2780 cells),pIC50 [1]
"CC(O)(CC(=O)Nc1ccc2c(c1)CCN(C(=O)COc1cccnc1)C2)C(F)(F)F (stereo not drawn) [Example 12, 4,4,4-Trifluoro-3-hydroxy-3-methyl-N-[2-[2-(3-pyridyloxy)acetyl]-3,4-dihydro-1H-isoquinlin-6-yl]butanamide]",> 6.17,≥ 6.71
"CC(C)(O)CC(=O)Nc1ccc2c(c1)CCN(C(=O)COc1cccnc1)C2 [Example 15, 3-Hydroxy-3-methyl-N-{2-[(pyridin-3-yloxy)acetyl]-1,2,3,4-tetrahydroisoquinolin-6-yl}butanamide]",> 6.17,≥ 6.71
"CN1CCC(S(=O)(=O)Nc2ccc3c(c2)CCN(C(=O)COc2cccnc2)C3)CC1 [Example 9, 1-Methyl-N-{2-[(pyridin-3-yloxy)acetyl]-1,2,3,4-tetrahydroisoquinolin-6-yl}piperidine-4-sulfonamide]",> 6.17,≥ 6.71
"O=C(COc1cccnc1)N1CCc2cc(NS(=O)(=O)C3CCN(C(=O)C4CCOCC4)CC3)ccc2C1 [Example 10, N-[2-[2-(3-Pyridyloxy)acetyl]-3,4-dihydro-1H-isoquinolin-6-yl]-1-(tetrahydropyran-4-carbonyl)piperidine-4-sulfonamide]",> 6.17,≥ 6.71
"CC(c1ccc2c(c1)CCN(C(=O)COc1cccnc1)C2)N1CCN(C(=O)C2CCOCC2)CC1 (single isomer, unassigned; isomer 2) [Example 20, 2-(3-Pyridyloxy)-1-[6-[1-[4-(tetrahydropyran-4-carbonyl)piperazin-1-yl]ethyl]-3,4-dihydro-1H-isoquinolin-2-yl]ethanone (isomer 2)]",> 6.17,≥ 6.71
"O=C(CN1CCOCC1)N1CCN(Cc2ccc3c(c2)CCN(C(=O)COc2cccnc2)C3)CC1 [Example 17, 2-(Morpholin-4-yl)-1-[4-({2-[(pyridin-3-yloxy)acetyl]-1,2,3,4-tetrahydroisoquinolin-6-yl}methyl)piperazin-1-yl]ethanone]",> 6.17,≥ 6.71
"O=C(COc1cccnc1)N1CCc2cc(NS(=O)(=O)CCC(F)(F)F)ccc2C1 [Example 5, 3,3,3-Trifluoro-N-{2-[(pyridin-3-yloxy)acetyl]-1,2,3,4-tetrahydroisoquinolin-6-yl}propane-1-sulfonamide]",> 6.17,≥ 6.71
"CC(C)(C)CC(=O)Nc1ccc2c(c1)CCN(C(=O)COc1cccnc1)C2 [Example 14, 3,3-Dimethyl-N-{2-[(pyridin-3-yloxy)acetyl]-1,2,3,4-tetrahydroisoquinolin-6-yl}butanamide]",> 6.17,≥ 6.71
"O=C(COc1cccnc1)N1CCc2cc(NS(=O)(=O)CC3CC3)ccc2C1 [Example 6, 1-Cyclopropyl-N-{2-[(pyridin-3-yloxy)acetyl]-1,2,3,4-tetrahydroisoquinolin-6-yl}methanesulfonamide]",> 6.17,≥ 6.71
"CC(C)(O)CC(=O)N1CCN(Cc2ccc3c(c2)CCN(C(=O)COc2cccnc2)C3)CC1 [Example 18, 3-Hydroxy-3-methyl-1-[4-({2-[(pyridin-3-yloxy)acetyl]-1,2,3,4-tetrahydroisoquinolin-6-yl}methyl)piperazin-1-yl]butan-1-one]",> 6.17,≥ 6.71
"O=C(COc1cccnc1)N1CCc2cc(NS(=O)(=O)c3ccccn3)ccc2C1 [Example 3, N-{2-[(Pyridin-3-yloxy)acetyl]-1,2,3,4-tetrahydroisoquinolin-6-yl}pyridine-2-sulfonamide]",> 6.17,≥ 6.71
"O=C(COc1cccnc1)N1CCc2cc(NS(=O)(=O)C3CCN(C4COC4)CC3)ccc2C1 [Example 8, 1-(Oxetan-3-yl)-N-[2-[2-(3-pyridyloxy)acetyl]-3,4-dihydro-1H-isoquinolin-6-yl]piperidine-4-sulfonamide]",> 6.17,≥ 6.71
"O=C(COc1cccnc1)N1CCc2cc(CN3CCN(C(=O)C4CCOCC4)CC3)ccc2C1 [Example 16, 2-(Pyridin-3-yloxy)-1-[6-{[4-(tetrahydro-2H-pyran-4-ylcarbonyl)piperazin-1-yl]methyl}-3,4-dihydroisoquinolin-2(1H)-yl]ethanone]",> 6.17,≥ 6.71
"CC(C)OCCS(=O)(=O)Nc1ccc2c(c1)CCN(C(=O)COc1cccnc1)C2 [Example 7, 2-Isopropoxy-N-[2-[2-(3-pyridyloxy)acetyl]-3,4-dihydro-1H-isoquinolin-6-yl]ethanesulfonamide]",> 6.17,≥ 6.71
"O=C(CC1CCCCO1)Nc1ccc2c(c1)CCN(C(=O)COc1cccnc1)C2 (single isomer, unassigned; isomer 2) [Example 13, N-[2-[2-(3-Pyridyloxy)acetyl]-3,4-dihydro-1H-isoquinolin-6-yl]-2-tetrahydropyran-2-yl-acetamide (isomer 2)]",> 6.17,≥ 6.71
"O=C(COc1cccnc1)N1CCc2cc(NS(=O)(=O)C3CCOCC3)ccc2C1 [Example 4, N-{2-[(Pyridin-3-yloxy)acetyl]-1,2,3,4-tetrahydroisoquinolin-6-yl}tetrahydro-2H-pyran-4-sulfonamide]",> 6.17,≥ 6.71
"O=C(CC1CCOCC1)N1CCN(Cc2ccc3c(c2)CCN(C(=O)COc2cccnc2)C3)CC1 [Example 19, 2-(Pyridin-3-yloxy)-1-[6-{[4-(tetrahydro-2H-pyran-4-ylacetyl)piperazin-1-yl]methyl}-3,4-dihydroisoquinolin-2(1H)-yl]ethanone]",> 6.17,≥ 6.71
"CCC(C)(O)CC(=O)Nc1ccc2c(c1)CCN(C(=O)COc1cccnc1)C2 (stereo not drawn) [Example 11, 3-Hydroxy-3-methyl-N-[2-[2-(3-pyridyloxy)acetyl]-3,4-dihydro-1H-isoquinolin-6-yl]pentanamide]",> 6.17,≥ 6.71
